Data from patent publication US9034886B2, “4-aminoquinazoline derivatives and uses thereof” (Shanghai Institute of Pharmaceutical Industry, priority 2011, dated 2015).

Tests used:
HDACs = experiment: In vitro inhibition of HDACs (HDAC Inhibitor Drug Screening Kit, Biovision K340-100); assay type: biochemical
Description: The in vitro inhibitory activities of the compounds towards HDACs were tested according to the instructions in the HDAC Inhibitor Drug Screening Kit (Biovision/Catalog #K340-100).
(1) The compounds to be tested were each individually prepared as 2 mM, 200 μM and 40 μM solutions and their inhibitory activities at these concentrations were tested.

[1] = test system: Hut78 T lymphocytic leukemia cells; experiment: In vitro anti-proliferative effect, CCK-8 method, Hut78; assay type: cell-based; conditions: Homo sapiens, HuT78, read-out: Hut-78 (inhibition %)
Description: (§1) The inhibitory activities of the compounds towards Hut78 T lymphocytic leukemia cells, Jurkat E6-1 human T-cell lymphoma, PANC-1 human pancreatic cancer cells, A549 human lung cancer cells, K562 human chronic myelogenous leukemia cells, Hep3B2.1-7 human liver cancer cells, MDA-MB-435s human breast cancer cells. Colo320 human colorectal cancer cell lines, and PC-3 human prostate cancer at two concentrations of 100 μM and 10 μM were determined. The inhibition percentages were obtained through CCK-8 method.

[2] = test system: PANC-1 human pancreatic cancer cells; experiment: In vitro anti-proliferative effect, CCK-8 method, PANC-1; assay type: cell-based; conditions: Homo sapiens, PANC-1
Description: as §1

[3] = test system: Jurkat E6-1 human T-cell lymphoma; experiment: In vitro anti-proliferative effect, CCK-8 method, Jurkat E6-1; assay type: cell-based; conditions: Homo sapiens, Jurkat E6.1
Description: as §1

[4] = test system: K562 human chronic myelogenous leukemia cells; experiment: In vitro anti-proliferative effect, CCK-8 method, K562; assay type: cell-based; conditions: Homo sapiens, K562
Description: as §1

[5] = test system: A549 human lung cancer cells; experiment: In vitro anti-proliferative effect, CCK-8 method, A549; assay type: cell-based; conditions: Homo sapiens, A549
Description: as §1

[6] = test system: MDA-MB-435s human breast cancer cells; experiment: In vitro anti-proliferative effect, CCK-8 method, MDA-MB-435s; assay type: cell-based; conditions: Homo sapiens, MDA-MB-435S
Description: as §1

[7] = test system: Hep3B2.1-7 human liver cancer cells; experiment: In vitro anti-proliferative effect, CCK-8 method, Hep3B; assay type: cell-based; conditions: Homo sapiens, Hep3B cell strain, CCK-8 method; for inhibition at 10 µM: compound at 10 μM; for inhibition at 100 µM: compound at 100 μM
Description: as §1

[8] = test system: PC-3 human prostate cancer; experiment: In vitro anti-proliferative effect, CCK-8 method, PC-3; assay type: cell-based; conditions: Homo sapiens, PC-3 cell strain, CCK-8 method; for inhibition at 10 µM: compound at 10 μM; for inhibition at 100 µM: compound at 100 μM
Description: as §1

[9] = test system: Colo320 human colorectal cancer cell lines; experiment: In vitro anti-proliferative effect, CCK-8 method, Colo320; assay type: cell-based; conditions: Homo sapiens, COLO 320, Colo320 cell strain, CCK-8 method; for inhibition at 10 µM: compound at 10 μM; for inhibition at 100 µM: compound at 100 μM
Description: as §1

[10] = Maximum tolerance dose through intragastrical administration; assay type: in vivo; conditions: mice, administrated intragastrically
Description: Forty ICR mice, half female and half male, weighing […] were divided into four groups, 10 mice in each group. After the mice were fasted for 6 h, the compound to be tested was administrated intragastrically to each group at a volume of 0.3 ml/10 g by using a sterile plastic syringe. General physical signs and the deaths of the animals were record at 1, 2 and 4 h after the administration. The animals were then observed continuously for 14 days and their weights, physical signs and deaths were observed and recorded every day. Dead animals were dissected to see if there was any visible pathological change in the animal's viscera and pathological examination was performed on suspicious tissues and organs. A part of the experimental results is as follows.

HDAC1 = HDAC1 (Homo sapiens (Human), UniProt Q13547); experiment: In vitro inhibition of subtype HDAC1 (HDAC1 Inhibitor Drug Screening Kit, Biovision); assay type: biochemical; conditions: for inhibition at 1 µM / inhibition at 10 µM: read-out: % Inhibition towards HDAC1
Description: The in vitro inhibitory activities of the compounds towards the subtype HDAC1 were tested according to the instructions in the HDAC1 Inhibitor Drug Screening Kit (Biovision).
(1) The compounds to be tested were each individually prepared as 10 μM and 1 μM solutions and their inhibitory activities at these concentrations were tested.
Each dilution sample was placed in two wells and the enzyme inhibition IC50 of the compound was tested.

Chain of HDAC1 (Q13547 whole entry): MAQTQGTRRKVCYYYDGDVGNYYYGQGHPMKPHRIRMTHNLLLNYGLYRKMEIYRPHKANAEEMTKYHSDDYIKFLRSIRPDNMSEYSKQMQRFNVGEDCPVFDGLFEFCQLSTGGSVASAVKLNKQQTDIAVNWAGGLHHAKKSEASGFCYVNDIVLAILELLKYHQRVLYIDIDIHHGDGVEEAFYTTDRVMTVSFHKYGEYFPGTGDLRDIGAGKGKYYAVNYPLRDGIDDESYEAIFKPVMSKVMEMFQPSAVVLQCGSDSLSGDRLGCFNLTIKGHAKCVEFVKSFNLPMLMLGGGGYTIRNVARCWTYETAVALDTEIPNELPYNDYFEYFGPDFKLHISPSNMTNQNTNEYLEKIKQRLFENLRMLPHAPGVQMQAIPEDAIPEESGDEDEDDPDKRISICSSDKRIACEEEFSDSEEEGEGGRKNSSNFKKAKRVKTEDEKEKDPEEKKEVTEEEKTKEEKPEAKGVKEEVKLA

Structure (SMILES) | Inhibition percentage (%) towards HDACs (HDACs; 40 μM) | inhibition at 10 µM [1] | inhibition at 100 µM [1] | inhibition at 10 µM [2] | inhibition at 100 µM [2] | inhibition at 10 µM [3] | inhibition at 100 µM [3] | inhibition at 10 µM [4] | inhibition at 100 µM [4] | inhibition at 10 µM [5] | inhibition at 100 µM [5] | inhibition at 10 µM [6] | inhibition at 100 µM [6] | inhibition at 10 µM [7] | inhibition at 100 µM [7] | inhibition at 10 µM [8] | inhibition at 100 µM [8] | inhibition at 10 µM [9] | inhibition at 100 µM [9] | maximum tolerance dose [10] | further results
Nc1cnccc1NC(=O)c1ccc(Nc2ncnc3ccccc23)cc1 [Compound V-2] | 17.6% | 63.4% | 82.8% | 20.7% | 74.1% | 58.5% | 85.9% | 21% | 64.4% | 65.6% | 84.8% | 35.8% | 86.9% | 31.2% | 53.6% | 90.3% | 92.4% | 39.6% | 92.9% | over 2000 mg/kg | Inhibition percentage (%) towards HDACs (HDACs; 200 μM): 28.0%; Inhibition percentage (%) towards HDACs (HDACs; 2 mM): 77.1%
COc1cc2ncnc(Nc3ccc(C(=O)Nc4ccncc4N)cc3)c2cc1OC [Compound V-4] | 36.3% | 66.4% | 95.8% | 14.4% | 11.9% | 5.4% | 23.7% | -1.3% | 38.1% | -43.9% | -19.4% | -20.7% | -10.4% | -10.2% | -12.1% | 5.2% | 15.9% | 7.1% | 16.8% | over 5000 mg/kg | IC50 (HDACs): 3.29 µM; inhibitory activity according to in vitro IC50 value against HDACs compared with MS-275 (HDACs): better inhibitory activities than MS-275; Inhibition percentage (%) towards HDACs (HDACs; 200 μM): 70.3%; Inhibition percentage (%) towards HDACs (HDACs; 2 mM): 85.3%; inhibitory activity on HDACs compared with MS-275 (HDACs; concentrations of 2 mM, 200 μM, and 40 μM): significantly stronger inhibitory activities than MS-275
COc1ccc2ncnc(Nc3ccc(C(=O)Nc4ccccc4N)cc3)c2c1 [Compound V-5, N-(2-aminophenyl)-4-(6-methoxyquinazoline-4-amino)benzamide] | 2.8% | 15% | 43.9% | 10.5% | 45.9% | 62.2% | 87.9% | 49.4% | 83.2% | -44.3% | -13.1% | -14.3% | 84.1% | 7.3% | 66.6% | 0% | 66.7% | 13% | 45.3% | over 2000 mg/kg | IC50 (HDACs): 7.79 µM; Inhibition percentage (%) towards HDACs (HDACs; 200 μM): 16.8%; Inhibition percentage (%) towards HDACs (HDACs; 2 mM): 36.7%
COc1cc2ncnc(Nc3ccc(C(=O)Nc4cc(-c5cccs5)ccc4N)cc3)c2cc1OC [Compound V-23, N-[2-amino-5-(2-thienyl)phenyl]-4-(6,7-dimethoxyquinazoline-4-amino)benzamide] | 17.5% | 59.9% | 93.1% | 9.2% | 4% | 4.7% | 52.7% | 12.8% | 61.2% | -7.4% | 6.2% | 21.5% | 42.9% | 1% | 28.1% | 7% | 40.2% | 7.3% | 5.9% | – | Inhibition percentage (%) towards HDACs (HDACs; 200 μM): 37.3%; Inhibition percentage (%) towards HDACs (HDACs; 2 mM): 40.7%; IC50 (HDAC1): 0.178 µM; inhibition at 1 µM (HDAC1): 19.2%; inhibition at 10 µM (HDAC1): 55.8%
Nc1cnccc1NC(=O)c1ccc(CNc2ncnc3ccccc23)cc1 [Compound V-26] | 11.4% | 79.6% | 86.9% | 5.1% | 40.8% | 76.9% | 95.1% | 54% | 88.2% | 4.2% | 63.7% | 16.6% | 73.6% | 11.7% | 63.5% | 8.7% | 52.6% | -0.2% | 44.4% | – | Inhibition percentage (%) towards HDACs (HDACs; 200 μM): 40.2%; Inhibition percentage (%) towards HDACs (HDACs; 2 mM): 82.4%; inhibition at 1 µM (HDAC1): 46.4%; inhibition at 10 µM (HDAC1): 88.4%; inhibitory activity against HDAC1 compared with MS-275 (HDAC1; both concentrations 10 μM and 1 μM): superior to that of MS-275
Nc1ccccc1NC(=O)c1ccc(CNc2ncnc3c(F)cccc23)cc1 [Compound V-43, N-(2-aminophenyl)-4-[(8-fluoroquinazoline-4-amino)methyl]benzamide] | – | 75.7% | 89.6% | 3.1% | 35.9% | 69.1% | 96.8% | 13.8% | 60.8% | 41.2% | 85.5% | 18.8% | 86.4% | 21.2% | 58.8% | 81.4% | 89.4% | 19.1% | 59.4% | over 5000 mg/kg | –
CC(=O)Nc1ccc2ncnc(NCc3ccc(C(=O)Nc4ccccc4N)cc3)c2c1 [Compound V-46, N-(2-aminophenyl)-4-[(6-acetamidoquinazoline-4-amino)methyl]benzamide] | – | 16.4% | 93.4% | 8.1% | 70.4% | 14.8% | 1.9% | 27.3% | 18.9% | 7.7% | 4.1% | 16.4% | 4.1% | 17.5% | -5% | -1.7% | -2.4% | 13.7% | -9% | over 2000 mg/kg | –
CC(=O)Nc1ccc2ncnc(NCc3ccc(C(=O)Nc4ccncc4N)cc3)c2c1 [Compound V-47] | – | 9.9% | 88.3% | 2.8% | 43% | 59.4% | 76.6% | 58% | 62.1% | 9.4% | 8% | 21.8% | 29.2% | 11.2% | 19.2% | 7.2% | 12.8% | 11% | 6% | over 5000 mg/kg | –
